Assay results reported in patent publication US10301267B2, “Compounds” (AstraZeneca AB, priority 2006, dated 2019).
Structures can show the parent of a compound that is named as a salt.

Target: FGFR1 active kinase (Homo sapiens, UniProt P11362)
Assay: FGFR Kinase assay - Caliper; further: 408 µM ATP
Type: biochemical
Conditions: FGFR1 […], 408 uM ATP; mean of n as printed; read-out: FGFR Kinase assay - Caliper, IC50
Description: FGFR Kinase Assay—Caliper
To determine inhibition of FGFR activity, kinase assays were conducted using Caliper technology.
Kinase activity assays were performed in Greiner 384-well low volume plates, with a total reaction volume of 12 ul per well. Final concentration of FGFR1 active kinase in each reaction well was 7.2 nM. The substrate for each assay was a custom peptide with fluorescent tag (13 amino acids in length, […] with the fluorescene tag on the first K).
Compounds were serially diluted in 5% (v/v) DMSO, before being added to assay plates. The Enzyme (at 7.2 nM [final]) and Substrate (at 3.6 uM [final]) were added separately to the compound plates, in reaction buffer [comprising: 50 mM MOPS (Sigma, Catalogue No. M1254)—pH 6.5, 0.004% Triton (Sigma, Catalogue No. X-100), 2.4 mM DTT, 12 mM MgCl2, 408 uM ATP] resulting in a final DMSO concentration in the reaction mix of 0.8%.
Assay plates were incubated at room temperature for 1.5 h, before the reaction was stopped with the addition of buffer [comprising: 100 mM HEPES—pH7.5, 0.033% Brij-35 (Sigma Catalogue No. B4184), 0.22% Caliper Coating Reagent #3 (Caliper Life Sciences Catalogue No. 760050), 88 mM EDTA, 5% DMSO]. Stopped assay plates were then read using the Caliper LabChip® LC3000 (which uses microfludics to measure a shift in mobility between fluorescent labelled peptide and the FGFR1 kinase—phosphorylated form of this peptide).
In the assay, compounds were tested at a range of concentrations.
Percentage inhibition at 1 uM, as expressed herein, is a calculated value based on the curve fit that was generated experimentally. From the fitted curve plot, the effect of compound at a concentration of 1 uM was calculated as a percentage inhibition. The IC50 is the concentration of compound, which inhibits FGFR1 kinase activity by 50% in the context of this assay.

Sequence of FGFR1 active kinase (P11362 22-822): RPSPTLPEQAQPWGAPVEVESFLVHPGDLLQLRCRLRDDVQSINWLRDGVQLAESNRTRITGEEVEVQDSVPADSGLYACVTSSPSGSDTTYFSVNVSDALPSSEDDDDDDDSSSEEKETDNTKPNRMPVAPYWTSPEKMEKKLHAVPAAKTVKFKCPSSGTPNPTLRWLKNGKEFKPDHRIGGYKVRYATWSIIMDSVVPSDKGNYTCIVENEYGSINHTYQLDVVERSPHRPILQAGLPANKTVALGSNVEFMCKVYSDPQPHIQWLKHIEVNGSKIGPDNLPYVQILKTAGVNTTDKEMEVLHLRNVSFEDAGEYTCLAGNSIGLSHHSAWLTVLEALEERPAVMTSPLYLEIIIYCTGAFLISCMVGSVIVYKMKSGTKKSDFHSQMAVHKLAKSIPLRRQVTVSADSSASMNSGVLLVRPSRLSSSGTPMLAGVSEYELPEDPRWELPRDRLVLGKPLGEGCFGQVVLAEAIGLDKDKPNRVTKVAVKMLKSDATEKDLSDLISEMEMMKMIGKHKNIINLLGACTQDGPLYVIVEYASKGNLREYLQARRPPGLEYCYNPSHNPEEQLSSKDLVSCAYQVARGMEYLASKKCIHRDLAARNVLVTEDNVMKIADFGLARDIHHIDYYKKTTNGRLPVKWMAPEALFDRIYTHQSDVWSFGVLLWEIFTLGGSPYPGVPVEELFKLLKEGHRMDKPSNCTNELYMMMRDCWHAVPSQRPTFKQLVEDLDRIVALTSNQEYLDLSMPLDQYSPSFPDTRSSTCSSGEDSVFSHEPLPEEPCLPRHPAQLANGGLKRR

| IC50 | Compound |
| --- | --- |
| 710 nM | COc1cc(CCc2cc(NC(=O)c3cccc(N4CCOCC4)c3)n[nH]2)cc(OC)c1 [Example 40, N-[5-[2-(3,5-Dimethoxyphenyl)ethyl]-1H-pyrazol-3-yl]-3-morpholin-4-yl-benzamide] |
| 1050 nM | COc1cccc(CCc2cc(NC(=O)c3ccc(O)nc3)[nH]n2)c1 [Example 31, 6-Hydroxy-N-[5-[2-(3-methoxyphenyl)ethyl]-2H-pyrazol-3-yl]pyridine-3-carboxamide] |
| 26 nM | COc1cc(CCc2cc(NC(=O)c3ccc(N4CCNCC4)cc3)n[nH]2)cc(OC)c1 [Example 45, N-[5-[2-(3,5-Dimethoxyphenyl)ethyl]-1H-pyrazol-3-yl]-4-piperazin-1-yl-benzamide] |
| 64000 nM | COc1cccc(CCc2cc(NC(=O)c3ccc(Nc4ccccc4)nc3)[nH]n2)c1 [Example 26, 6-Anilino-N-[5-[2-(3-methoxyphenyl)ethyl]-2H-pyrazol-3-yl]pyridine-3-carboxamide] |
| 27 nM | COc1cccc(CCc2cc(NC(=O)c3ccc(N4CCOCC4)nc3)[nH]n2)c1 [Example 32, N-[5-[2-(3-Methoxyphenyl)ethyl]-2H-pyrazol-3-yl]-6-morpholin-4-yl-pyridine-3-carboxamide] |
| 140 nM | CN1CCN(c2ccc(C(=O)Nc3cc(CCc4ccc5c(c4)OCO5)n[nH]3)cc2)CC1 [Example 77, N-[5-(2-Benzo[1,3]dioxol-5-ylethyl)-2H-pyrazol-3-yl]-4-(4-methylpiperazin-1-yl)benzamide] |
| 940 nM | COc1cccc(CCc2cc(NC(=O)c3ccc(-n4cccn4)cc3)[nH]n2)c1 [Example 25, N-[5-[2-(3-Methoxyphenyl)ethyl]-2H-pyrazol-3-yl]-4-pyrazol-1-yl-benzamide] |
| 260 nM | COc1cccc(CCc2cc(NC(=O)c3ccc(NS(C)(=O)=O)cc3)[nH]n2)c1 [Example 27, 4-Methanesulfonamido-N-[5-[2-(3-methoxyphenyl)ethyl]-2H-pyrazol-3-yl]benzamide] |
| 140 nM | COc1cc(CCc2cc(NC(=O)c3ccc(CN4CCN(C)CC4)cc3)n[nH]2)cc(OC)c1 [Example 95, N-[5-[2-(3,5-Dimethoxyphenyl)ethyl]-1H-pyrazol-3-yl]-4-[(4-methylpiperazin-1-yl)methyl]benzamide] |
| 1200 nM | COc1cccc(CCc2cc(NC(=O)c3ccc(-c4cnco4)cc3)[nH]n2)c1 [Example 33, N-[5-[2-(3-Methoxyphenyl)ethyl]-2H-pyrazol-3-yl]-4-(1,3-oxazol-5-yl)benzamide] |
| 81 nM | COc1cc(CCc2cc(NC(=O)c3ccc(N4CCN5CCCCC5C4)cc3)[nH]n2)cc(OC)c1 (stereo not shown) [Example 94, 4-(1,3,4,6,7,8,9,9a-Octahydropyrido[2,1-c]pyrazin-2-yl)-N-[5-[2-(3,5-dimethoxyphenyl)ethyl]-2H-pyrazol-3-yl]benzamide] |
| 2610 nM | COc1cc(CCc2cc(NC(=O)c3ccccc3OC)n[nH]2)cc(OC)c1 [Example 41, N-[5-[2-(3,5-Dimethoxyphenyl)ethyl]-1H-pyrazol-3-yl]-2-methoxy-benzamide] |
| 25 nM | COc1cc(CCc2cc(NC(=O)c3ccc(OCC4CCNCC4)cc3)n[nH]2)cc(OC)c1 [Example 44, N-[5-[2-(3,5-Dimethoxyphenyl)ethyl]-1H-pyrazol-3-yl]-4-(4-piperidylmethoxy)benzamide] |

The next lines start with the compound.

| Compound | IC50 |
| --- | --- |
| COc1cc(CCc2cc(NC(=O)c3ccc(N4CCN(CCO)CC4)cc3)n[nH]2)cc(OC)c1 [Example 51, N-[5-[2-(3,5-Dimethoxyphenyl)ethyl]-1H-pyrazol-3-yl]-4-[4-(2-hydroxyethyl)piperazin-1-yl]benzamide] | 81 nM |
| COc1cccc(CCc2cc(NC(=O)c3cc(O)ccn3)[nH]n2)c1 [Example 64, 4-Hydroxy-N-[5-[2-(3-methoxyphenyl)ethyl]-2H-pyrazol-3-yl]pyridine-2-carboxamide] | 5000 nM |
| COc1cc(CCc2cc(NC(=O)c3ccc(N4CCNCC4)nc3)n[nH]2)cc(OC)c1 [Example 46, N-[5-[2-(3,5-Dimethoxyphenyl)ethyl]-1H-pyrazol-3-yl]-6-piperazin-1-yl-pyridine-3-carboxamide] | 40 nM |
| COc1cc(CCc2cc(NC(=O)c3ccc(N4CCNCC4)s3)n[nH]2)cc(OC)c1 [Example 60, N-[5-[2-(3,5-Dimethoxyphenyl)ethyl]-1H-pyrazol-3-yl]-5-piperazin-1-yl-thiophene-2-carboxamide (2,2,2-trifluoroacetic Acid Salt)] | 22 nM |
| COc1cc(CCc2cc(NC(=O)c3ccc(N(C)C)cc3)n[nH]2)cc(OC)c1 [Example 59, N-[5-[2-(3,5-Dimethoxyphenyl)ethyl]-1H-pyrazol-3-yl]-4-dimethylamino-benzamide] | 134 nM |
| COc1cc(CCc2cc(NC(=O)c3ccc(CN4CCc5ccc(C#N)cc5C4)cc3)n[nH]2)cc(OC)c1 [Example 52, 4-[(7-Cyano-3,4-dihydro-1H-isoquinolin-2-yl)methyl]-N-[5-[2-(3,5-dimethoxyphenyl)ethyl]-1H-pyrazol-3-yl]benzamide] | 486 nM |
| CCOCCOc1ccc(C(=O)Nc2cc(CCc3cc(OC)cc(OC)c3)[nH]n2)cc1 [Example 42, N-[5-[2-(3,5-Dimethoxyphenyl)ethyl]-1H-pyrazol-3-yl]-4-(2-ethoxyethoxy)benzamide] | 75 nM |
| COc1cc(CCc2cc(NC(=O)c3ccc(C4CCN(C)CC4)cc3)n[nH]2)cc(OC)c1 [Example 92, N-[5-[2-(3,5-Dimethoxyphenyl)ethyl]-1H-pyrazol-3-yl]-4-(1-methyl-4-piperidyl)benzamide] | 7.9 nM |
| COc1cccc(CCc2cc(NC(=O)c3ccc(-n4cccn4)nc3)[nH]n2)c1 [Example 37, N-[5-[2-(3-Methoxyphenyl)ethyl]-2H-pyrazol-3-yl]-6-pyrazol-1-yl-pyridine-3-carboxamide] | 69000 nM |
| COc1cc(CCc2cc(NC(=O)c3ccc(N4CCN(C(C)=O)CC4)cc3)n[nH]2)cc(OC)c1 [Example 90, 4-(4-Acetylpiperazin-1-yl)-N-[5-[2-(3,5-dimethoxyphenyl)ethyl]-1H-pyrazol-3-yl]benzamide] | 56 nM |
| COc1ccc(CCc2cc(NC(=O)c3ccc(N4CCN(C)CC4)cc3)[nH]n2)c(C)c1 [Example 79, N-[5-[2-(4-Methoxy-2-methyl-phenyl)ethyl]-2H-pyrazol-3-yl]-4-(4-methylpiperazin-1-yl)benzamide] | 200 nM |
| COc1cc(CCc2cc(NC(=O)c3ccc(N4CCN(C5CCC5)CC4)cc3)n[nH]2)cc(OC)c1 [Example 89, 4-(4-Cyclobutylpiperazin-1-yl)-N-[5-[2-(3,5-dimethoxyphenyl)ethyl]-1H-pyrazol-3-yl]benzamide] | 9 nM |
| COc1cc(CCc2cc(NC(=O)c3ccc(F)cc3)[nH]n2)cc(OC)c1 [Example 38, N-[5-[2-(3,5-Dimethoxyphenyl)ethyl]-2H-pyrazol-3-yl]-4-fluoro-benzamide] | 165 nM |
| COc1cccc(CCc2cc(NC(=O)c3ccc(C(=O)O)nc3)[nH]n2)c1 [Example 66, 5-[[5-[2-(3-Methoxyphenyl)ethyl]-2H-pyrazol-3-yl]carbamoyl]pyridine-2-carboxylic Acid] | 1020 nM |
| COc1cc(CCc2cc(NC(=O)c3ccc(C4CCNCC4)cc3)n[nH]2)cc(OC)c1 [Example 58, N-[5-[2-(3,5-Dimethoxyphenyl)ethyl]-1H-pyrazol-3-yl]-4-(4-piperidyl)benzamide] | 1 nM |
| COc1cccc(CCc2cc(NC(=O)c3ccc(NC(=O)c4ccccc4)cc3)[nH]n2)c1 [Example 21, 4-Benzamido-N-[5-[2-(3-methoxyphenyl)ethyl]-2H-pyrazol-3-yl]benzamide] | 231000 nM |
| COc1ccc(C(=O)Nc2cc(OCc3cc(OC)cc(OC)c3)n[nH]2)cc1 [Example 71, N-[5-[(3,5-Dimethoxyphenyl)methoxy]-2H-pyrazol-3-yl]-4-methoxy-benzamide] | 157 nM |
| COc1cc(CCc2cc(NC(=O)c3cccc(OC)c3)n[nH]2)cc(OC)c1 [Example 39, N-[5-[2-(3,5-Dimethoxyphenyl)ethyl]-1H-pyrazol-3-yl]-3-methoxy-benzamide] | 370 nM |
